Laboratory results from ChEMBL document CHEMBL1201862, “PubChem BioAssay data set” (2004).
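These data come from cells grown in 96-well plates and exposed to compound for 48 hours at five concentrations. Abbreviation: GI50, concentration required for 50% inhibition of growth.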 Calls of active or inactive are those of the source. Rule as the data show it: active = GI50 up to about 1.1 µM and inactive = higher.

What was measured:
Assay in all cases: NCI tumour cell line growth inhibition, 48 h
UACC-257 = test system: UACC-257
UACC-62 = test system: UACC-62
SK-MEL-28 = test system: SK-MEL-28
OVCAR-8 = test system: OVCAR-8
COLO 205 = test system: COLO 205
KM-20L2 = test system: KM-20L2
786-0 = test system: 786-0
M19-MEL = test system: M19-MEL
OVCAR-5 = test system: OVCAR-5
M14 = test system: M14
EKVX = test system: EKVX
K562 = test system: K562
NCI-H226 = test system: NCI-H226
DMS-114 = test system: DMS-114
SNB-19 = test system: SNB-19
Hs-578T = test system: Hs-578T
MDA-MB-435 = test system: MDA-MB-435
BT-549 = test system: BT-549
MDA-N = test system: MDA-N

Row | Structure (SMILES) | GI50 (UACC-257) | GI50 (UACC-62) | GI50 (SK-MEL-28) | GI50 (OVCAR-8) | GI50 (COLO 205) | GI50 (KM-20L2) | GI50 (786-0) | GI50 (M19-MEL) | GI50 (OVCAR-5) | GI50 (M14) | GI50 (EKVX) | GI50 (K562) | GI50 (NCI-H226) | GI50 (DMS-114) | GI50 (SNB-19) | GI50 (Hs-578T) | GI50 (MDA-MB-435) | GI50 (BT-549) | GI50 (MDA-N)
1 | O=C1OC(CCCl)(c2ccccc2)CC1CN1CCOCC1 (stereo not given) | 22.5 µM (inactive) | 21 µM (inactive) | 19.7 µM (inactive) | 17.7 µM (inactive) | 18.9 µM (inactive) | 39.5 µM (inactive) | 12.1 µM (inactive) | 22.1 µM (inactive) | > 100 µM (inactive) | 20.4 µM (inactive) | 19.9 µM (inactive) | 14.8 µM (inactive) | 13.8 µM (inactive) | 20.4 µM (inactive) | – | – | – | – | –
2 | O=C(/N=C(/Nc1ccccc1)SCCS/C(=N\C(=O)c1ccccc1)Nc1ccccc1)c1ccccc1 | 42.5 µM (inactive) | 52.2 µM (inactive) | 49.8 µM (inactive) | 71.1 µM (inactive) | > 100 µM (inactive) | 68.9 µM (inactive) | 61.4 µM (inactive) | 63.5 µM (inactive) | > 100 µM (inactive) | 60.5 µM (inactive) | > 100 µM (inactive) | 43.6 µM (inactive) | 66.5 µM (inactive) | 35.7 µM (inactive) | 56.4 µM (inactive) | – | – | – | –
3 | C=C1C(=O)OC2CC1C(OC(=O)/C=C/c1ccccc1)C/C(C)=C/CC/C(C)=C/CCC2(C)O (stereo not given) | 1.87 µM (inactive) | 1.95 µM (inactive) | 2.3 µM (inactive) | 1.75 µM (inactive) | 3.41 µM (inactive) | – | 1.31 µM (inactive) | – | 1.75 µM (inactive) | 1.64 µM (inactive) | 1.81 µM (inactive) | 0.906 µM (active) | 1.64 µM (inactive) | – | 1.89 µM (inactive) | 2.19 µM (inactive) | 1.46 µM (inactive) | 1.05 µM (active) | 1.38 µM (inactive)
4 | COc1ccc(OC)c([N+](=O)[O-])c1-c1nc2sccn2c1/C=N/N=C(N)N | 69.5 µM (inactive) | 91.8 µM (inactive) | 17.7 µM (inactive) | > 100 µM (inactive) | 29 µM (inactive) | – | > 100 µM (inactive) | – | > 100 µM (inactive) | > 100 µM (inactive) | > 100 µM (inactive) | 43.6 µM (inactive) | > 100 µM (inactive) | – | > 100 µM (inactive) | 26.7 µM (inactive) | 52.7 µM (inactive) | 53.2 µM (inactive) | 49.8 µM (inactive)
5 | Cc1cc(O)c2c(c1)CC(O)C1=C2C(=O)c2c(O)ccc(OC3CC(O)C(OC4CC(OC5CCC(O)C(C)O5)C(O)C(C)O4)C(C)O3)c2C1=O (stereo not given) | 1.57 µM (inactive) | 1.68 µM (inactive) | 1.92 µM (inactive) | 1.65 µM (inactive) | 1.39 µM (inactive) | – | 1.42 µM (inactive) | – | 3.81 µM (inactive) | 1.5 µM (inactive) | 1.89 µM (inactive) | 1.63 µM (inactive) | 1.5 µM (inactive) | – | 1.6 µM (inactive) | 2.62 µM (inactive) | 1.03 µM (active) | 1.86 µM (inactive) | 1.84 µM (inactive)
6 | O=C1CSC2(CC(/C=C/c3ccccc3[N+](=O)[O-])=NN2c2cccc(S(=O)(=O)O)c2)N1c1nc2ccccc2s1 (stereo not given) | 37.2 µM (inactive) | 13.6 µM (inactive) | 38 µM (inactive) | 15.3 µM (inactive) | 33.1 µM (inactive) | – | 12.3 µM (inactive) | – | 19.3 µM (inactive) | 20.7 µM (inactive) | 32.3 µM (inactive) | 19.5 µM (inactive) | 16.8 µM (inactive) | – | 15.5 µM (inactive) | 22.3 µM (inactive) | 14.8 µM (inactive) | 17.3 µM (inactive) | 17.9 µM (inactive)
7 | CC(C)(C)OC(=O)N(O)CCCn1cnc2c(N)ncnc21 | > 100 µM (inactive) | > 100 µM (inactive) | > 100 µM (inactive) | > 100 µM (inactive) | > 100 µM (inactive) | – | > 100 µM (inactive) | – | > 100 µM (inactive) | > 100 µM (inactive) | > 100 µM (inactive) | > 100 µM (inactive) | > 100 µM (inactive) | – | > 100 µM (inactive) | > 100 µM (inactive) | > 100 µM (inactive) | > 100 µM (inactive) | > 100 µM (inactive)
8 | Cc1nc2ccc(S(=O)(=O)Nc3ccc(Cl)cc3)cc2c(=O)n1NC(=O)CNc1ccc(Cl)cc1 | > 100 µM (inactive) | > 100 µM (inactive) | > 100 µM (inactive) | > 100 µM (inactive) | > 100 µM (inactive) | – | > 100 µM (inactive) | – | > 100 µM (inactive) | > 100 µM (inactive) | > 100 µM (inactive) | > 100 µM (inactive) | > 100 µM (inactive) | – | > 100 µM (inactive) | > 100 µM (inactive) | > 100 µM (inactive) | > 100 µM (inactive) | > 100 µM (inactive)
9 | O=C(CCN1CCCCC1)c1csc2ccccc12 | > 100 µM (inactive) | > 100 µM (inactive) | > 100 µM (inactive) | > 100 µM (inactive) | > 100 µM (inactive) | – | 50.1 µM (inactive) | – | > 100 µM (inactive) | > 100 µM (inactive) | > 100 µM (inactive) | > 100 µM (inactive) | > 100 µM (inactive) | – | > 100 µM (inactive) | > 100 µM (inactive) | > 100 µM (inactive) | > 100 µM (inactive) | > 100 µM (inactive)
10 | COc1cccc(/C=N/C23CC4CC(CC(C4)C2)C3)c1 | > 100 µM (inactive) | > 100 µM (inactive) | > 100 µM (inactive) | > 100 µM (inactive) | > 100 µM (inactive) | > 100 µM (inactive) | > 100 µM (inactive) | > 100 µM (inactive) | > 100 µM (inactive) | > 100 µM (inactive) | > 100 µM (inactive) | > 100 µM (inactive) | > 100 µM (inactive) | – | > 100 µM (inactive) | – | – | – | –
11 | Cc1cc(S(=O)(=O)Nc2nc(N)n(-c3ccccn3)n2)c(S)cc1Cl | > 100 µM (inactive) | > 100 µM (inactive) | > 100 µM (inactive) | > 100 µM (inactive) | > 100 µM (inactive) | – | > 100 µM (inactive) | – | > 100 µM (inactive) | > 100 µM (inactive) | > 100 µM (inactive) | > 100 µM (inactive) | > 100 µM (inactive) | – | > 100 µM (inactive) | 75 µM (inactive) | > 100 µM (inactive) | > 100 µM (inactive) | > 100 µM (inactive)
12 | NCCCN(CCCCN(CCCN)CCCc1ccccc1)CCCc1ccccc1 | 1.79 µM (inactive) | 1.74 µM (inactive) | 1.51 µM (inactive) | 8.71 µM (inactive) | 1.56 µM (inactive) | – | 1.7 µM (inactive) | – | 11 µM (inactive) | 1.76 µM (inactive) | 2.99 µM (inactive) | 1.77 µM (inactive) | 17.6 µM (inactive) | – | 1.19 µM (inactive) | 1.81 µM (inactive) | 1.74 µM (inactive) | 3.03 µM (inactive) | 1.74 µM (inactive)
13 | COc1cc(Cc2cnc(N)nc2N)cc(OC)c1OCCCNc1ccc([N+](=O)[O-])cc1 | 11.9 µM (inactive) | 12.9 µM (inactive) | 13.9 µM (inactive) | 14.3 µM (inactive) | 12.2 µM (inactive) | – | 12.4 µM (inactive) | – | 19 µM (inactive) | 6.35 µM (inactive) | 15.3 µM (inactive) | 8.69 µM (inactive) | 13.4 µM (inactive) | – | 12.8 µM (inactive) | 18.5 µM (inactive) | 13.8 µM (inactive) | 10.5 µM (inactive) | 16.2 µM (inactive)
14 | CCN(CC)CCNC(=O)c1cn2c(ccc3sc4ccccc4c(=O)c32)n1 | 14.3 µM (inactive) | 15.1 µM (inactive) | 10.4 µM (inactive) | 12.3 µM (inactive) | 6.25 µM (inactive) | – | 4.1 µM (inactive) | – | 8.57 µM (inactive) | 15.1 µM (inactive) | 14.6 µM (inactive) | 6.28 µM (inactive) | 13.3 µM (inactive) | – | 11.5 µM (inactive) | 15.3 µM (inactive) | 16.7 µM (inactive) | 13.8 µM (inactive) | 14.1 µM (inactive)
15 | CN(C)c1ccc(/C=C2\N=C(NN)NC2=O)cc1 | > 100 µM (inactive) | > 100 µM (inactive) | > 100 µM (inactive) | 55 µM (inactive) | > 100 µM (inactive) | – | 75.2 µM (inactive) | – | > 100 µM (inactive) | > 100 µM (inactive) | 31.9 µM (inactive) | 10.1 µM (inactive) | 78.2 µM (inactive) | – | > 100 µM (inactive) | > 100 µM (inactive) | 58.6 µM (inactive) | > 100 µM (inactive) | 73.8 µM (inactive)
16 | C[N+](CCCl)(CCCl)Cc1cccc2cccc([N+](=O)[O-])c12 | 37.2 µM (inactive) | > 100 µM (inactive) | > 100 µM (inactive) | 43.5 µM (inactive) | 25.8 µM (inactive) | – | > 100 µM (inactive) | – | > 100 µM (inactive) | > 100 µM (inactive) | > 100 µM (inactive) | > 100 µM (inactive) | > 100 µM (inactive) | – | 75.2 µM (inactive) | > 100 µM (inactive) | > 100 µM (inactive) | > 100 µM (inactive) | > 100 µM (inactive)
17 | O=c1cc2n(c(=O)[nH]1)C1OC(C(O)C1O)[C@H]2CCO (stereo not given in full) | > 100 µM (inactive) | > 100 µM (inactive) | > 100 µM (inactive) | > 100 µM (inactive) | > 100 µM (inactive) | > 100 µM (inactive) | > 100 µM (inactive) | > 100 µM (inactive) | > 100 µM (inactive) | – | > 100 µM (inactive) | > 100 µM (inactive) | > 100 µM (inactive) | > 100 µM (inactive) | > 100 µM (inactive) | – | – | – | –
